# Measurements published in patent US20260183295A1, “METHODS AND COMPOSITIONS FOR TREATING CANCER” (Onconova Therapeutics, Inc., priority 2022, published 2026).
# How the values were obtained:
# BRAF = assay: Phosphoproteomic analysis, MDA-MB-231; assay type: cell-based; settings: 5 μM, 2 hours, T-test p<0,05
# Procedure: Following treatment, a sample of each of the three treatments was analyzed by Western Blot for expression of phosphoprotein targets.
# In addition to western blot analysis, the cell lysate samples underwent phosphoproteomic analysis.
# MDA-MB-231 cells [1] = assay: Lysotracker Green staining, phase contrast microscopy; assay type: cell-based; settings: 5 μM, 2 hours
# Procedure: MDA-MB-231 cells were treated with Compound 1 (5 μM) for 2 hours and stained with Lysotracker Green and imaged using phase contrast microscopy to examine the effect of Compound 1 treatment on vacuolization.
# MICALL2 = target: T1, MICALL2 (Homo sapiens, UniProt Q8IY33); assay: CETSA-MS, MDA-MB-231 intact cells; assay type: cell-based; settings: 2 μM and 20 μM
# T1 construct: endogenous in cells; host or cells: MDA-MB-231
# T1 sequence (Q8IY33 whole entry): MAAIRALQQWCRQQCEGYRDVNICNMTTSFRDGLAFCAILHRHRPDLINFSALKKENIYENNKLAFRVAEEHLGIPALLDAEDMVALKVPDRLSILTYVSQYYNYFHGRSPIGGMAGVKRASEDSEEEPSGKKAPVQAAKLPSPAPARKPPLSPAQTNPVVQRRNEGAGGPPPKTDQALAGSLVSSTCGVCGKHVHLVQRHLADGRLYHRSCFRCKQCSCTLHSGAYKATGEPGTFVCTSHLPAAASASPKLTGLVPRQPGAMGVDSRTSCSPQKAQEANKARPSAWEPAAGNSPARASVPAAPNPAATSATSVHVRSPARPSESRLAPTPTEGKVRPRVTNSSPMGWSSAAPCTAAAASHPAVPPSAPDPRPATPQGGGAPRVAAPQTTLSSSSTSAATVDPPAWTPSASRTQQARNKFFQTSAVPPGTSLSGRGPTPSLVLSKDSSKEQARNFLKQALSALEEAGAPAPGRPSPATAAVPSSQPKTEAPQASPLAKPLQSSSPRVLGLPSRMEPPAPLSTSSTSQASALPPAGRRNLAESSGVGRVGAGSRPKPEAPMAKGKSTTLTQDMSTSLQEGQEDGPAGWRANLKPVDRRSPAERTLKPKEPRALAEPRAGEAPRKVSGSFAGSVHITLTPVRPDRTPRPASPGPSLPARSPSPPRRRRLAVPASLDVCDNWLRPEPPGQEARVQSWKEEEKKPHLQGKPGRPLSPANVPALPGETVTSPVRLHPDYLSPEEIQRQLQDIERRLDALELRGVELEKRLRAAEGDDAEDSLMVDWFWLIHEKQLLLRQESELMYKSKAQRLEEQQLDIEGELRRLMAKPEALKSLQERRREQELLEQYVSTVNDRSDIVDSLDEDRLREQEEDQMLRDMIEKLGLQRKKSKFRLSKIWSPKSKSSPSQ
# Procedure: (§1) TNBC MDA-MB-231 cells were grown at 37° C. in 5% CO2 and suspended in warm media and split into 4 equal volumes. […] Cells were incubated and then pelleted. Following pelleting, the cells were washed, resuspended, and heated in a thermal gradient. Following heating, the samples were flash frozen and lysed in lysis buffer, agitated by vortex, and sonicated prior to centrifugation. The supernatant was collected and denaturation buffer added. Cold acetone was then added to the cell samples, and protein collected by centrifugation. Pellets were then washed twice with cold acetone and the washed pellets prior to labeling.
# (§2) The intact cell protein samples and lysate protein samples were then digested and labeled for mass spectrometry analysis according to the manufacturer's recommended protocols. Digested and labeled protein samples were analyzed by mass spectrometry proteomic analysis and the resulting protein targets were analyzed and plotted.
# TIMP2 = target: T2, TIMP2 (Homo sapiens, UniProt P16035); assay: CETSA-MS, MDA-MB-231 intact cells; assay type: cell-based; settings: 2 μM and 20 μM
# T2 construct: endogenous in cells; host or cells: MDA-MB-231
# T2 sequence (P16035 27-220): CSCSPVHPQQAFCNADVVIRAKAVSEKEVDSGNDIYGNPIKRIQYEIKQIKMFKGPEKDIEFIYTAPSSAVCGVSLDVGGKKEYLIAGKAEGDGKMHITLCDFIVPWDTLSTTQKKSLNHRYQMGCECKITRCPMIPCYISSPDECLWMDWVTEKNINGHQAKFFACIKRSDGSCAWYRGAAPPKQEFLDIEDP
# Procedure: as §1, §2
# Akt pSer473 = assay: Western blot, MDA-MB-231 cells, 24 hours; assay type: cell-based; settings: 2.5, 5, 10 μM, versus Comparator 1, 2 and 4
# Cyclin D1 = assay: Western blot, MDA-MB-231 cells, 24 hours; assay type: cell-based; settings: 2.5, 5, 10 μM, versus Comparator 1, 2 and 4
# CDK4/cyclin D1 [2] = target: T3, CDK4/cyclin D1 (Homo sapiens, UniProt P11802); assay: CDK4/cyclin D1 NanoBret IC50; assay type: cell-based
# T3 sequence (P11802 whole entry): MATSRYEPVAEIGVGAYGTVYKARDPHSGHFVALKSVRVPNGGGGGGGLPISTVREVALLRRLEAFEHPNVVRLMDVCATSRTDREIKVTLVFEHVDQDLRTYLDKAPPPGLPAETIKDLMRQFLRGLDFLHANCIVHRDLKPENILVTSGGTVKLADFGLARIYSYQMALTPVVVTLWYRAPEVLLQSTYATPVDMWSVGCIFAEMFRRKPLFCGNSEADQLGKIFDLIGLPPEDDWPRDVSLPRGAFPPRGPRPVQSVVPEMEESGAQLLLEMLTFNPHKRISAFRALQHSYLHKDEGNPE
# T3 sequence (P24385 whole entry partner): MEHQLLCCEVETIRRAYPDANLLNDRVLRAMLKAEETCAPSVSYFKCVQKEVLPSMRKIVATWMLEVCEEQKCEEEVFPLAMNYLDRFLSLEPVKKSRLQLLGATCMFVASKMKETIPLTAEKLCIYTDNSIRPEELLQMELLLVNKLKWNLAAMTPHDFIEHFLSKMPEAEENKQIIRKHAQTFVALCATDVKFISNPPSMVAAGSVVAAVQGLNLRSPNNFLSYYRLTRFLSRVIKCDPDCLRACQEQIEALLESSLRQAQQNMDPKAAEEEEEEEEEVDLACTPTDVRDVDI
# Caspase 3/7 = Caspase 3/7 Glo assay, MDA-MB-231 cells, 24 hours; assay type: cell-based
# Procedure: To determine how Compound 1 induces cell death, Caspase 3/7 activity was measured using the Caspase 3/7 Glo assay.
# The effect of zVAD-FMK treatment on Caspase 3/7 activity was assessed.
# B2M = assay: qPCR of mRNA expression, PyMT cells; assay type: cell-based, mouse; settings: 24 and 48 hours
# PARP in MDA-MB-468 = assay: PARP cleavage after 72 hours treatment; assay type: cell-based; settings: MDA-MB-468 (TNBC)
# Procedure: (§3) The effects on the different treatment conditions on BUB 1 levels and PARP cleavage were also assessed. For both MNA-MB-231 cells, Compound 1 alone or with HCQ or SBI decreased BUB1 levels and cleaved PARP with […] decreases in cell viability observed for all treatments except Compound 1+SBI in MMA-MB-231 cells. The effects of Compound 1 with or without autophagy inhibitors was less pronounced in HCC-1937 cells.
# PARP in MDA-MB-231 = assay: PARP cleavage after 72 hours treatment; assay type: cell-based; settings: MDA-MB-231 (TNBC)
# Procedure: as §3
# PARP in HCC-1937 = assay: PARP cleavage after 72 hours treatment; assay type: cell-based; settings: HCC-1937 (TNBC)
# Procedure: as §3
# MDA-MB-231 cells [3] = assay: Annexin V/PI staining followed by FACS, 24 hours; assay type: cell-based
# Procedure: To determine the effect of the different treatment conditions on cell death, Annexin V/PI staining was performed.
# NUAK1 = target: T4, NUAK1 (Homo sapiens, UniProt O60285); assay: NUAK1 NanoBret; assay type: cell-based
# T4 sequence (O60285 1-661): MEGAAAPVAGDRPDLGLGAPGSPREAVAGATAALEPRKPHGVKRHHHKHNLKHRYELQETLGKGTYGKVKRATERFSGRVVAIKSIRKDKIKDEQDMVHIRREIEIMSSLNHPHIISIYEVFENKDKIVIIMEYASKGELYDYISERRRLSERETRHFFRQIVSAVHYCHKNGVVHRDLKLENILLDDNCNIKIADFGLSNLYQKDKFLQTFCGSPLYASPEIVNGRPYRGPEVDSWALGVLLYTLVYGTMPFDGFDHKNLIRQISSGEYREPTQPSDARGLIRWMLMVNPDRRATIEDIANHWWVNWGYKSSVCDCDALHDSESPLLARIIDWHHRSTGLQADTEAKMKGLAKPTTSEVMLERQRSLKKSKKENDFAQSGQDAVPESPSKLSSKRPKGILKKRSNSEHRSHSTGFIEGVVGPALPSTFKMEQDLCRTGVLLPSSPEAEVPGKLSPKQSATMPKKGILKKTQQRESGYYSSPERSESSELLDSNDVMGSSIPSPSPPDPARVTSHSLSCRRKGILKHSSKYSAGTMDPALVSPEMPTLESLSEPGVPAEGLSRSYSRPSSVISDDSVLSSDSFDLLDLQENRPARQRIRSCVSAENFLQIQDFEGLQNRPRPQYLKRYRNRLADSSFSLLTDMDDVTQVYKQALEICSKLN
# Hs578T spheroids [4] = assay: Spheroid imaging (Hoechst, F-actin); assay type: cell-based; settings: 5 μM, compared to DMSO, Comparator 1 and Comparator 2 (FIG. 18)
# p21 = assay: Western blot, MDA-MB-231 cells, 24 hours; assay type: cell-based; settings: 2.5, 5, 10 μM, versus Comparator 1, 2 and 4
# CDK4/cyclin D1 [5] = target: T3, CDK4/cyclin D1; assay: CDK4/cyclin D1 In Vitro IC50; assay type: biochemical
# Procedure: Substrate was prepared in freshly prepared base reaction buffer. Any required cofactors were delivered to the substrate solution above. Indicated kinase was delivered into the substrate solution and the solution was gently mixed. Compounds were delivered in 100% DMSO into the kinase reaction mixture by Acoustic technology (Echo550; nanoliter range) and incubated for 20 minutes at room temperature. 33P-ATP was delivered into the reaction mixture to initiate the reaction. The kinase reaction was incubated for 2 hours at room temperature. Kinase activity was detected by P81 filter-binding method.
# Hs578T spheroids [6] = assay: CellTiter Glo 3D spheroid viability; assay type: cell-based; settings: 48 hours; Compound 1, Comparator 1, Comparator 2 5 μM; Comparator 4 10 μM
# Procedure: Viability of the spheroids was assessed using CellTiter Glo 3D.
compound,measurement,setting,value
"CN1CCN(c2ccc(Nc3ncc4cc(C#N)c(=O)n(C5CCCC5)c4n3)cc2)CC1 [Compound 1, 8-cyclopentyl-2-((4-(4-methylpiperazin-1-yl)phenyl)amino)-7-oxo-7,8-dihydropyrido[2,3-d]pyrimidine-6-carbonitrile]",Significance (phosphopeptide target),BRAF,significant
same,"vacuolization, Lysotracker Green staining",MDA-MB-231 cells [1],extensive cytoplasmic vacuolization that colocalized with Lysotracker green staining
same,Group (CETSA-MS thermal shift),MICALL2,Destabilization
same,Group (CETSA-MS thermal shift),TIMP2,Stabilization
same,Akt pSer473 levels,Akt pSer473,decreasing
same,Cyclin D1 levels,Cyclin D1,decreasing
same,IC50,CDK4/cyclin D1 [2],1 nM
same,Caspase 3/7 activity,"Caspase 3/7; Compound 1, Comparator 1, 2 5 μM, Comparator 4 10 μM (FIG. 22)",modest increase
same,Caspase 3/7 activity,"Caspase 3/7; without zVAD-FMK, relative to DMSO (FIG. 26)",small increase
same,effect of zVAD-FMK on induced Caspase 3/7 activity,Caspase 3/7; zVAD-FMK 20 μM (FIG. 26),inhibited by zVAD-FMK treatment
same,B2M mRNA levels,B2M,to a greater extent than Comparator 1 did
same,PARP Cleavage,PARP in MDA-MB-468,Yes
same,PARP Cleavage,PARP in MDA-MB-231,Yes
same,PARP Cleavage,PARP in HCC-1937,No
same,cell death (Annexin V/PI),"MDA-MB-231 cells [3]; Compound 1, Comparator 1, 2 5 μM, Comparator 4 10 μM",~40%
same,"effect of zVAD-FMK on cell death, Annexin V/PI staining",MDA-MB-231 cells [3]; zVAD-FMK 20 μM (FIG. 24),unaffected by zVAD-FMK treatment
same,IC50,NUAK1,42 nM
same,spheroid size,Hs578T spheroids [4],small decrease in spheroid size
same,p21 levels,p21,decreasing
same,IC50,CDK4/cyclin D1 [5],2 nM
same,decrease in organoid viability compared to DMSO,Hs578T spheroids [6],~40%
